Reference: patent publication US11384055B2 (BIOMARIN PHARMACEUTICAL INC., priority 2017, dated 2022)

Molecular target: T1, Human GO (Homo sapiens, UniProt Q9UJM8)
T1 construct: purchased Novus Biologicals NBP1-72412
T1 sequence (Q9UJM8 1-370): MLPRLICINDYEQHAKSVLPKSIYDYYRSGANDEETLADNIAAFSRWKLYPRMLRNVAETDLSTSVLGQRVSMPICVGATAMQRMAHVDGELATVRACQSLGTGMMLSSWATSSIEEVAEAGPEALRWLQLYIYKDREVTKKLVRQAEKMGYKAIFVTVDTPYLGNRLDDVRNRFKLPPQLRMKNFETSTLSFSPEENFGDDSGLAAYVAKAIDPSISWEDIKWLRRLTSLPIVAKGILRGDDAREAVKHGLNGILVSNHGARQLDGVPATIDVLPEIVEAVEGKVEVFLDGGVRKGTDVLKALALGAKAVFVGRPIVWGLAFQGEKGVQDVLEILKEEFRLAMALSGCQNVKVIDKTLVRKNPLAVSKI
Experiment: GO enzymatic assay (coupled fluorescence/HRP assay, glycolate substrate)
Assay type: biochemical
Conditions: not given
Experimental: Assay 1: GO Enzymatic Assay
GO was incubated with its substrate, glycolate, in 50 mM potassium phosphate buffer, pH 7. […] The enzyme was optimized and the kinetics was determined.
Compound inhibition was determined by adding various concentrations of inhibitors in the GO enzyme assay. The IC50 value for each measured compound was generated from sigmoidal dose-response (variable slope) curves with GraphPad Prism software (GraphPad Software, Inc., San Diego, Calif.) using the percent inhibition of GO activity relative to DMSO control.

With `O=C(O)c1[nH]nnc1Sc1ccc(Cl)c(Cl)c1` [Compound 41, 4-((3,4-dichlorophenyl)thio)-1H-1,2,3-triazole-5-carboxylic acid] the IC50 was < 100 nM.

Same assay, conditions: Table 1; read-out: Range (range of IC50 values calculated from the enzymatic assays)

`COc1ccc(-c2nc(Sc3nn[nH]c3C(=O)O)cs2)cc1Cl` [Compound 25-2, 4-((2-(3-chloro-4-methoxyphenyl)thiazol-4-yl)thio)-1H-1,2,3-triazole-5-carboxylic acid] and `CC(C)Oc1ccc(-c2nc(Sc3nn[nH]c3C(=O)O)cs2)cc1Cl` [Compound 27, 4-((2-(3-chloro-4-isopropoxyphenyl)thiazol-4-yl)thio)-1H-1,2,3-triazole-5-carboxylic acid] cannot be ordered by IC50: < 100 nM for the first, < 100 nM for the second.

`O=C(O)c1[nH]nnc1Sc1csc(-c2ccc(Cl)cc2Cl)n1` [Compound 26, 4-((2-(2,4-dichlorophenyl)thiazol-4-yl)thio)-1H-1,2,3-triazole-5-carboxylic acid] and `O=C(O)c1[nH]nnc1Sc1csc(-c2ccc(OC(F)(F)F)c(Cl)c2)n1` [Compound 39, 4-((2-(3-chloro-4-(trifluoromethoxy)phenyl)thiazol-4-yl)thio)-1H-1,2,3-triazole-5-carboxylic acid] cannot be ordered by IC50: < 100 nM for the first, < 100 nM for the second.

First: Cn1c(Sc2nn[nH]c2C(=O)O)nnc1-c1ccc(Cl)c(Cl)c1 [Compound 28, 4-((5-(3,4-dichlorophenyl)-4-methyl-4H-1,2,4-triazol-3-yl)thio)-1H-1,2,3-triazole-5-carboxylic acid 2,2,2-trifluoroacetate]
Second: Cn1c(Sc2nn[nH]c2C(=O)O)cnc1-c1ccc(Cl)c(Cl)c1 [Compound 35, 4-((2-(3,4-dichlorophenyl)-1-methyl-1H-imidazol-5-yl)thio)-1H-1,2,3-triazole-5-carboxylic acid 2,2,2-trifluoroacetate]
The IC50 of the first is higher: 1000 to 10000 nM for the first, 100 to 1000 nM for the second.

`CCOc1ccc2sc(Sc3nn[nH]c3C(=O)O)nc2c1` [Compound 29, 4-((5-ethoxybenzo[d]thiazol-2-yl)thio)-1H-1,2,3-triazole-5-carboxylic acid] and `CCCCOc1ccc2sc(Sc3nn[nH]c3C(=O)O)nc2c1` [Compound 34, 4-((5-butoxybenzo[d]thiazol-2-yl)thio)-1H-1,2,3-triazole-5-carboxylic acid] fall in the same range of IC50: 100 to 1000 nM for the first, 100 to 1000 nM for the second.

`O=C(O)c1[nH]nnc1Sc1ccc(-c2ccc(Cl)c(OC(F)(F)F)c2)cc1` [Compound 30, 4-((4′-chloro-3′-(trifluoromethoxy)-[1,1′-biphenyl]-4-yl)thio)-1H-1,2,3-triazole-5-carboxylic acid] and `O=C(O)c1[nH]nnc1Sc1ccc(-c2ccc(OC(F)(F)F)c(Cl)c2)cc1` [Compound 32, 4-((3′-chloro-4′-(trifluoromethoxy)-[1,1′-biphenyl]-4-yl)thio)-1H-1,2,3-triazole-5-carboxylic acid] cannot be ordered by IC50: < 100 nM for the first, < 100 nM for the second.

`O=C(O)c1[nH]nnc1Sc1ccc(-c2cccc(OC(F)(F)F)c2Cl)cc1` [Compound 31, 4-((2′-chloro-3′-(trifluoromethoxy)-[1,1′-biphenyl]-4-yl)thio)-1H-1,2,3-triazole-5-carboxylic acid] and `O=C(O)c1[nH]nnc1Sc1cccc(-c2ccc(OC(F)(F)F)cc2)c1` [Compound 42, 4-((4′-(trifluoromethoxy)-[1,1′-biphenyl]-3-yl)thio)-1H-1,2,3-triazole-5-carboxylic acid] cannot be ordered by IC50: < 100 nM for the first, < 100 nM for the second.

`COC(=O)c1[nH]nnc1Sc1ccc(-c2ccc(OC(F)(F)F)cc2)cc1` [Compound 33, methyl 4-((4′-(trifluoromethoxy)-[1,1′-biphenyl]-4-yl)thio)-1H-1,2,3-triazole-5-carboxylate] and `CN(C)CCOC(=O)c1[nH]nnc1Sc1ccc(-c2ccc(OC(F)(F)F)cc2)cc1` [Compound 37, 2-(dimethylamino)ethyl 4-((4′-(trifluoromethoxy)-[1,1′-biphenyl]-4-yl)thio)-1H-1,2,3-triazole-5-carboxylate] cannot be ordered by IC50: > 10000 nM for the first, > 10000 nM for the second.

`O=C(O)c1[nH]nnc1Sc1csc(-c2ccc(Cl)c(Cl)c2)c1` [Compound 36, 4-((5-(3,4-dichlorophenyl)thiophen-3-yl)thio)-1H-1,2,3-triazole-5-carboxylic acid] and `O=C(O)c1[nH]nnc1Nc1nc(-c2ccc(Cl)c(Cl)c2)cs1` [Compound 59, 4-((4-(3,4-dichlorophenyl)thiazol-2-yl)amino)-1H-1,2,3-triazole-5-carboxylic acid] cannot be ordered by IC50: < 100 nM for the first, < 100 nM for the second.

`COC(=O)c1[nH]nnc1Sc1csc(-c2ccc(OC(F)(F)F)c(Cl)c2)n1` [Compound 40, methyl 4-((2-(3-chloro-4-(trifluoromethoxy)phenyl)thiazol-4-yl)thio)-1H-1,2,3-triazole-5-carboxylate] and `COC(=O)c1[nH]nnc1Sc1nc(-c2ccc(OC(F)(F)F)c(Cl)c2)cs1` [Compound 44, methyl 4-((4-(3-chloro-4-(trifluoromethoxy)phenyl)thiazol-2-yl)thio)-1H-1,2,3-triazole-5-carboxylate] cannot be ordered by IC50: > 10000 nM for the first, > 10000 nM for the second.

`O=C(O)c1[nH]nnc1Sc1nc(-c2ccc(OC(F)(F)F)c(Cl)c2)cs1` [Compound 43, 4-((4-(3-chloro-4-(trifluoromethoxy)phenyl)thiazol-2-yl)thio)-1H-1,2,3-triazole-5-carboxylic acid] and `O=C(O)c1[nH]nnc1Sc1ccc(-c2ccc(Cl)cc2)cc1Cl` [Compound 48, 4-((3,4′-dichloro-[1,1′-biphenyl]-4-yl)thio)-1H-1,2,3-triazole-5-carboxylic acid] cannot be ordered by IC50: < 100 nM for the first, < 100 nM for the second.

First: O=C(OC1COC1)c1[nH]nnc1Sc1ccc(-c2ccc(OC(F)(F)F)cc2)cc1 [Compound 45, oxetan-3-yl 4-((4′-(trifluoromethoxy)-[1,1′-biphenyl]-4-yl)thio)-1H-1,2,3-triazole-5-carboxylate]
Second: CC(C)C(=O)OCOC(=O)c1[nH]nnc1Sc1ccc(-c2ccc(OC(F)(F)F)cc2)cc1 [Compound 55, (isobutyryloxy)methyl 4-((4′-(trifluoromethoxy)-[1,1′-biphenyl]-4-yl)thio)-1H-1,2,3-triazole-5-carboxylate]
The IC50 of the first is higher: 1000 to 10000 nM for the first, 100 to 1000 nM for the second.

First: O=C(O)c1[nH]nnc1Sc1ccc2cc(Cl)ccc2n1 [Compound 46, 4-((6-chloroquinolin-2-yl)thio)-1H-1,2,3-triazole-5-carboxylic acid]
Second: O=C(O)c1[nH]nnc1Sc1ccc2cc(Cl)ccc2c1 [Compound 56, 4-((6-chloronaphthalen-2-yl)thio)-1H-1,2,3-triazole-5-carboxylic acid]
The IC50 of the first is higher: 100 to 1000 nM for the first, < 100 nM for the second. The second is the more potent here.

`O=C(O)c1[nH]nnc1Sc1ccc(-c2ccc(Cl)cc2)c(Cl)c1` [Compound 47, 4-((2,4′-dichloro-[1,1′-biphenyl]-4-yl)thio)-1H-1,2,3-triazole-5-carboxylic acid] and `O=C(O)c1[nH]nnc1Sc1ccc(F)c(F)c1` [Compound 49, 4-((3,4-difluorophenyl)thio)-1H-1,2,3-triazole-5-carboxylic acid] cannot be ordered by IC50: < 100 nM for the first, < 100 nM for the second.

`O=C(O)c1[nH]nnc1Sc1ccc2c(c1)CCCC2` [Compound 50, 4-((5,6,7,8-tetrahydronaphthalen-2-yl)thio)-1H-1,2,3-triazole-5-carboxylic acid] and `O=C(O)c1[nH]nnc1Sc1ccc2ncsc2c1` [Compound 53, 4-(benzo[d]thiazol-6-ylthio)-1H-1,2,3-triazole-5-carboxylic acid 2,2,2-trifluoroacetate] cannot be ordered by IC50: < 100 nM for the first, < 100 nM for the second.

`CC(C)(C)C(=O)OCn1nnc(Sc2ccc(-c3ccc(OC(F)(F)F)cc3)cc2)c1C(=O)O` [Compound 51, 1-((pivaloyloxy)methyl)-4-((4′-(trifluoromethoxy)-[1,1′-biphenyl]-4-yl)thio)-1H-1,2,3-triazole-5-carboxylic acid] and `CC(C)C(=O)OCn1nnc(Sc2ccc(-c3ccc(OC(F)(F)F)cc3)cc2)c1C(=O)O` [Compound 52, 1-((isobutyryloxy)methyl)-4-((4′-(trifluoromethoxy)-[1,1′-biphenyl]-4-yl)thio)-1H-1,2,3-triazole-5-carboxylic acid] fall in the same range of IC50: 100 to 1000 nM for the first, 100 to 1000 nM for the second.

First: CC(C)(C)C(=O)OCOC(=O)c1[nH]nnc1Sc1ccc(-c2ccc(OC(F)(F)F)cc2)cc1 [Compound 54, (pivaloyloxy)methyl 4-((4′-(trifluoromethoxy)-[1,1′-biphenyl]-4-yl)thio)-1H-1,2,3-triazole-5-carboxylate]
Second: CCOC(=O)c1[nH]nnc1Nc1ccc(-c2ccc(Cl)cc2)cc1 [Compound 58-1, ethyl 4-((4′-chloro-[1,1′-biphenyl]-4-yl)amino)-1H-1,2,3-triazole-5-carboxylate]
The IC50 of the first is lower: 1000 to 10000 nM for the first, > 10000 nM for the second.

`O=C(O)c1[nH]nnc1SC1Cc2cc(Cl)c(Cl)cc2C1` [Compound 57, 4-((5,6-dichloro-2,3-dihydro-1H-inden-2-yl)thio)-1H-1,2,3-triazole-5-carboxylic 2,2,2-trifluoroacetate] and `O=C(O)c1[nH]nnc1Nc1csc(-c2ccc(Cl)c(Cl)c2)n1` [Compound 61, ammonium 4-((2-(3,4-dichlorophenyl)thiazol-4-yl)amino)-1H-1,2,3-triazole-5-carboxylate] cannot be ordered by IC50: < 100 nM for the first, < 100 nM for the second.

`O=C(O)c1[nH]nnc1Nc1ccc(-c2ccc(Cl)cc2)cc1` [Compound 58-2, 4-((4′-chloro-[1,1′-biphenyl]-4-yl)amino)-1H-1,2,3-triazole-5-carboxylic acid] and `O=C(O)c1[nH]nnc1Nc1ccc(-c2ccc(Cl)c(Cl)c2)cc1` [Compound 60, 4-((3′,4′-dichloro-[1,1′-biphenyl]-4-yl)amino)-1H-1,2,3-triazole-5-carboxylic acid] cannot be ordered by IC50: < 100 nM for the first, < 100 nM for the second.
